From patent publication US11473151B2, “Diagnostic and therapeutic methods for cancer” (Genentech, Inc., priority 2017, dated 2022)

Test system: mUC patients (IMvigor210)
Assay: Association between mutations (FMOne panel, single genes and pathways) and response to atezolizumab or TMB
Assay type: in vivo, human
Source text: In addition, DNA was extracted from FFPE 10 micron sections from 293 patients and submitted to a Clinical Laboratory Improvement Amendments (CLIA)-certified, New York State-accredited, and College of American Pathologists (CAP)-accredited laboratory (Foundation Medicine, Cambridge, Mass.) for targeted next-generation sequencing (NGS)-based genomic profiling. Adaptor-ligated DNA underwent hybrid capture for all coding exons of 395 cancer-related genes plus select introns from 31 genes frequently rearranged in cancer (FMOne panel).
Captured libraries were sequenced to a median exon coverage depth of >500× (DNA) or 3M unique reads (RNA) using Agilent SURESELECT® v5 kit at 51 Mb on the ILLUMINA® HISEQ® 2500, and resultant sequences were analyzed for base substitutions, small insertions and deletions (indels), copy number alterations (focal amplifications and homozygous deletions), and gene fusions/rearrangements, as previously described (Frampton et al. Nat. Biotechnol. 31:1023-1031, 2013). Frequent germline variants from the 1000 Genomes Project (dbSNP142) were removed. To maximize mutation-detection accuracy (sensitivity and specificity) in impure clinical specimens, the test was previously optimized and validated to detect base substitutions at a ≥5% mutant allele frequency (MAF), indels with a ≥10% MAF with ≥99% accuracy, and fusions occurring within baited introns/exons with >99% sensitivity (Frampton et al. supra). Known confirmed somatic alterations deposited in the Catalog of Somatic Mutations in Cancer (COSMIC v62) are called at allele frequencies ≥1% (Forbes et al. Nucleic Acids Res. 39:D945-D950, 2011).
From the FMOne panel, tumor mutational burden was calculated from the number of short variants in coding regions (substitutions and indels, including synonymous alterations) that were detected. Known and predicted germline alterations as well as known somatic and likely somatic variants are not counted. The mutation burden per Mb is the number of mutations counted divided by the Mb of genomic target territory of the FMOne panel. Unless otherwise indicated, FMOne-based mutation burden was used for all analyses around mutation burden.
For each gene, a patient was called mutant if a known or likely mutation was reported for that gene. For pathway-based analyses, a patient was called mutant in a pathway if any gene within the pathway was reported to have a known or likely mutation. Otherwise, a patient was considered to be non-mutant. A Fisher's Exact Test was used to determine whether the number of mutant patients differed between responders (complete and partial responders) and non-responders (stable and progressive disease). An association between mutation status and mutation burden was tested using a Wilcoxon Rank Sum Test. Single gene p-values were corrected for the number of tests performed using Benjamini and Hochberg adjustment. For pathway-based analyses, nominal p-values are reported.

Work on “atezolizumab: anti-PD-L1 antibody (Genentech), CAS Registry Number 1422185-06-5, also known as MPDL3280A” yielded an estimate (IKBKE mutation status vs response (CR/PR vs. SD/PD)) of 0, an estimate (INPP4B mutation status vs response (CR/PR vs. SD/PD)) of 0.00E+00 and an estimate (IRS2 mutation status vs response (CR/PR vs. SD/PD)) of 4.96E−01. The estimate (JAK1 mutation status vs response (CR/PR vs. SD/PD)) was 0.00E+00, the estimate (JAK2 mutation status vs response (CR/PR vs. SD/PD)) was 3.33E−01 and the estimate (JUN mutation status vs response (CR/PR vs. SD/PD)) was “Inf”. For the same substance, the estimate (KDM5A mutation status vs response (CR/PR vs. SD/PD)) was “Inf”, the estimate (KDM5C mutation status vs response (CR/PR vs. SD/PD)) was 3.30E−01 and the estimate (KDM6A mutation status vs response (CR/PR vs. SD/PD)) was 0.5153. The estimate (KDR mutation status vs response (CR/PR vs. SD/PD)) was 0, the estimate (KEAP1 mutation status vs response (CR/PR vs. SD/PD)) was 0 and the estimate (KEL mutation status vs response (CR/PR vs. SD/PD)) was 0. It also gave an estimate (KIT mutation status vs response (CR/PR vs. SD/PD)) of 0.3333, an estimate (KRAS mutation status vs response (CR/PR vs. SD/PD)) of 1.346 and an estimate (LRP1B mutation status vs response (CR/PR vs. SD/PD)) of 0.1555. The estimate (LRP6 mutation status vs response (CR/PR vs. SD/PD)) was 0, the estimate (LYN mutation status vs response (CR/PR vs. SD/PD)) was “Inf” and the estimate (LZTR1 mutation status vs response (CR/PR vs. SD/PD)) was 0. For the same substance, the estimate (MAGI2 mutation status vs response (CR/PR vs. SD/PD)) was “Inf”, the estimate (MAP2K4 mutation status vs response (CR/PR vs. SD/PD)) was “Inf” and the estimate (MAP3K1 mutation status vs response (CR/PR vs. SD/PD)) was 0.3333. The estimate (MAP3K13 mutation status vs response (CR/PR vs. SD/PD)) was “Inf”, the estimate (MCL1 mutation status vs response (CR/PR vs. SD/PD)) was 0.8339 and the estimate (MDM2 mutation status vs response (CR/PR vs. SD/PD)) was 0.4704. For the same substance, the estimate (MDM4 mutation status vs response (CR/PR vs. SD/PD)) was “Inf”, the estimate (MEN1 mutation status vs response (CR/PR vs. SD/PD)) was 0 and the estimate (MET mutation status vs response (CR/PR vs. SD/PD)) was 0. For the same substance, the estimate (MITF mutation status vs response (CR/PR vs. SD/PD)) was “Inf”, the estimate (MLL2 mutation status vs response (CR/PR vs. SD/PD)) was 1.185 and the estimate (MLL3 mutation status vs response (CR/PR vs. SD/PD)) was 0. For the same substance, the estimate (MPL mutation status vs response (CR/PR vs. SD/PD)) was 0, the estimate (MSH2 mutation status vs response (CR/PR vs. SD/PD)) was 0.6678 and the estimate (MSH6 mutation status vs response (CR/PR vs. SD/PD)) was 1.346. For the same substance, the estimate (MST1R mutation status vs response (CR/PR vs. SD/PD)) was “Inf”, the estimate (MTOR mutation status vs response (CR/PR vs. SD/PD)) was 0.3333 and the estimate (MUTYH mutation status vs response (CR/PR vs. SD/PD)) was 0.6678. For the same substance, the estimate (MYC mutation status vs response (CR/PR vs. SD/PD)) was 1.354, the estimate (MYCL1 mutation status vs response (CR/PR vs. SD/PD)) was 0.6605 and the estimate (MYCN mutation status vs response (CR/PR vs. SD/PD)) was 0.2167. It also gave an estimate (MYST3 mutation status vs response (CR/PR vs. SD/PD)) of 0.6642, an estimate (NBN mutation status vs response (CR/PR vs. SD/PD)) of 0 and an estimate (NCOR1 mutation status vs response (CR/PR vs. SD/PD)) of 1.179. It also gave an estimate (NF1 mutation status vs response (CR/PR vs. SD/PD)) of 0.4962, an estimate (NF2 mutation status vs response (CR/PR vs. SD/PD)) of 0.3297 and an estimate (NFE2L2 mutation status vs response (CR/PR vs. SD/PD)) of 0.3333. The estimate (NFKBIA mutation status vs response (CR/PR vs. SD/PD)) was “Inf”, the estimate (NKX2−1 mutation status vs response (CR/PR vs. SD/PD)) was “Inf” and the estimate (NOTCH1 mutation status vs response (CR/PR vs. SD/PD)) was 1.005. For the same substance, the estimate (NOTCH2 mutation status vs response (CR/PR vs. SD/PD)) was 0.6678, the estimate (NOTCH3 mutation status vs response (CR/PR vs. SD/PD)) was “Inf” and the estimate (NOTCH4 mutation status vs response (CR/PR vs. SD/PD)) was 0.6678. For the same substance, the estimate (NRAS mutation status vs response (CR/PR vs. SD/PD)) was 0, the estimate (NTRK1 mutation status vs response (CR/PR vs. SD/PD)) was 0 and the estimate (NTRK3 mutation status vs response (CR/PR vs. SD/PD)) was “Inf”. The estimate (NUP93 mutation status vs response (CR/PR vs. SD/PD)) was 0.6678, the estimate (PALB2 mutation status vs response (CR/PR vs. SD/PD)) was 0.6678 and the estimate (PARK2 mutation status vs response (CR/PR vs. SD/PD)) was “Inf”. The estimate (PARP4 mutation status vs response (CR/PR vs. SD/PD)) was “Inf”, the estimate (PAX5 mutation status vs response (CR/PR vs. SD/PD)) was “Inf” and the estimate (PBRM1 mutation status vs response (CR/PR vs. SD/PD)) was 0.1081. The estimate (PDCD1LG2 mutation status vs response (CR/PR vs. SD/PD)) was 0.6678, the estimate (PDGFRA mutation status vs response (CR/PR vs. SD/PD)) was 0 and the estimate (PIK3C2B mutation status vs response (CR/PR vs. SD/PD)) was “Inf”. The estimate (PIK3CA mutation status vs response (CR/PR vs. SD/PD)) was 0.7935, the estimate (PIK3CB mutation status vs response (CR/PR vs. SD/PD)) was “Inf” and the estimate (PIK3CG mutation status vs response (CR/PR vs. SD/PD)) was 0. It also gave an estimate (PIK3R1 mutation status vs response (CR/PR vs. SD/PD)) of 0.3297, an estimate (PIK3R2 mutation status vs response (CR/PR vs. SD/PD)) of 0 and an estimate (PMS2 mutation status vs response (CR/PR vs. SD/PD)) of 0. For the same substance, the estimate (POLE mutation status vs response (CR/PR vs. SD/PD)) was 0, the estimate (PRKCI mutation status vs response (CR/PR vs. SD/PD)) was 0.6678 and the estimate (PRSS8 mutation status vs response (CR/PR vs. SD/PD)) was 0. For the same substance, the estimate (PTCH2 mutation status vs response (CR/PR vs. SD/PD)) was 0, the estimate (PTEN mutation status vs response (CR/PR vs. SD/PD)) was 0.3224 and the estimate (PTPN11 mutation status vs response (CR/PR vs. SD/PD)) was “Inf”. The estimate (PTPRD mutation status vs response (CR/PR vs. SD/PD)) was “Inf”, the estimate (RAD50 mutation status vs response (CR/PR vs. SD/PD)) was “Inf” and the estimate (RAD51C mutation status vs response (CR/PR vs. SD/PD)) was 0. For the same substance, the estimate (RAD51 mutation status vs response (CR/PR vs. SD/PD)) was “Inf”, the estimate (RAF1 mutation status vs response (CR/PR vs. SD/PD)) was 0.5846 and the estimate (RB1 mutation status vs response (CR/PR vs. SD/PD)) was 0.6832. The estimate (RBM10 mutation status vs response (CR/PR vs. SD/PD)) was 0.7743, the estimate (REL mutation status vs response (CR/PR vs. SD/PD)) was 0 and the estimate (RICTOR mutation status vs response (CR/PR vs. SD/PD)) was 0.5352. For the same substance, the estimate (RNF43 mutation status vs response (CR/PR vs. SD/PD)) was 0, the estimate (ROS1 mutation status vs response (CR/PR vs. SD/PD)) was “Inf” and the estimate (RPA1 mutation status vs response (CR/PR vs. SD/PD)) was “Inf”. The estimate (RPTOR mutation status vs response (CR/PR vs. SD/PD)) was “Inf”, the estimate (RUNX1 mutation status vs response (CR/PR vs. SD/PD)) was 0.3333 and the estimate (SDHA mutation status vs response (CR/PR vs. SD/PD)) was “Inf”. The estimate (SETD2 mutation status vs response (CR/PR vs. SD/PD)) was 1.691, the estimate (SF3B1 mutation status vs response (CR/PR vs. SD/PD)) was 0.1646 and the estimate (SLIT2 mutation status vs response (CR/PR vs. SD/PD)) was “Inf”. The estimate (SMAD2 mutation status vs response (CR/PR vs. SD/PD)) was “Inf”, the estimate (SMAD3 mutation status vs response (CR/PR vs. SD/PD)) was “Inf” and the estimate (SMAD4 mutation status vs response (CR/PR vs. SD/PD)) was “Inf”. For the same substance, the estimate (SMARCA4 mutation status vs response (CR/PR vs. SD/PD)) was 0.548, the estimate (SOX2 mutation status vs response (CR/PR vs. SD/PD)) was “Inf” and the estimate (SOX9 mutation status vs response (CR/PR vs. SD/PD)) was “Inf”. For the same substance, the estimate (SOX10 mutation status vs response (CR/PR vs. SD/PD)) was “Inf”.
